Where “and” joins values, the source holds several entries; their conditions need not be identical. Identical values can stand only once.
Columns and labels:
[1] = system: S. aureus; experiment: S. aureus skin colonization after epicutaneous pretreatment of mouse skin (CFU); type: in vivo, C57BL/6 WT mice; details: treatment of mouse skin; text to Fig 1b
Procedure: Fig. 1 Lugdunin sensitizes epithelial cells for innate immune defense. a Primary human keratinocytes (PHKs) were pretreated with S. epidermidis conditioned medium (CM), indicated lugdunin concentrations, or the combination of both for 20 h. Subsequently, cells were infected with S. aureus for 1.5 h followed by cell lysis and determination of colony-forming units (CFUs). Shown is one representative experiment of three independent experiments with six technical replicates ± s.e.m. n.s., not significant. b Dorsal skin of mice was pretreated with S. epidermidis CM, 1.5 µg lugdunin alone or in combination with S. epidermidis CM for 24 h. Subsequently, S. aureus CFUs were determined. Horizontal lines represent the mean of each group ± s.e.m. c PHKs were treated with 2 μM lugdunin or with S. epidermidis CM alone or in combination for 20 h and subsequently expression of indicated antimicrobial peptides (AMPs) (respective protein names in brackets) was analyzed and normalized to actin. Shown is one representative experiment of three independent experiments with two technical replicates ± s.e.m. d PHKs were treated with 2 µM lugdunin or 100 ng/mL Pam2Cys for 5 h and subsequently the concentration of indicated cytokines in the supernatant was analyzed by LEGENDplex^TM (BioLegend). […]

[2] = system: PHKs; experiment: AMP gene expression in PHKs (qRT-PCR, normalized to actin); type: cell-based, human; details: 20 h, 2 µM lugdunin and/or S. epidermidis CM, medium = 1, two technical replicates, Fig 1c
Procedure: Fig. 1 Lugdunin sensitizes epithelial cells for innate immune defense. a Primary human keratinocytes (PHKs) were pretreated with S. epidermidis conditioned medium (CM), indicated lugdunin concentrations, or the combination of both for 20 h. Subsequently, cells were infected with S. aureus for 1.5 h followed by cell lysis and determination of colony-forming units (CFUs). Shown is one representative experiment of three independent experiments with six technical replicates ± s.e.m. n.s., not significant. b Dorsal skin of mice was pretreated with S. epidermidis CM, 1.5 µg lugdunin alone or in combination with S. epidermidis CM for 24 h. Subsequently, S. aureus CFUs were determined. Horizontal lines represent the mean of each group ± s.e.m. c PHKs were treated with 2 μM lugdunin or with S. epidermidis CM alone or in combination for 20 h and subsequently expression of indicated antimicrobial peptides (AMPs) (respective protein names in brackets) was analyzed and normalized to actin. Shown is one representative experiment of three independent experiments with two technical replicates ± s.e.m. d PHKs were treated with 2 µM lugdunin or 100 ng/mL Pam2Cys for 5 h and subsequently the concentration of indicated cytokines in the supernatant was analyzed by LEGENDplex^TM (BioLegend). Shown is one representative experiment of three independent experiments with two technical replicates ± s.e.m. e PHKs were treated with increasing concentrations of lugdunin or 100 ng/mL Pam2Cys or Pam3Cys for 5 h and subsequently expression of chemokine (C-X-C motif) ligand 8 (CXCL8) was analyzed and normalized to actin. Shown is one representative experiment of three independent experiments, each with two technical replicates ± s.e.m. f, g Indicated cells were treated with 2 µM lugdunin or 100 ng/mL Pam2Cys as a positive control for 5 h and subsequently the concentration of CXCL8 (f) and interleukin-1α (IL-1α) (g) in the supernatant was analyzed by LEGENDplex^TM (BioLegend) and enzyme-linked immunosorbent assay (ELISA) (R&D Systems). Shown is one representative experiment of three independent experiments with two technical replicates ± s.e.m. Significant differences to control treatments were analyzed by ordinary one-way analysis of variance (ANOVA) followed by Dunnett’s multiple comparisons test (*P < 0.05; **P < 0.01; ***P < 0.001; ****P < 0.0001). n.d. = not detected. Source data are provided as a Source Data file
After 5 h or 20 h of peptide treatment, PHKs were washed once with PBS, followed by the addition of RNA lysis buffer directly into the well. Total RNA was extracted using the Nucleospin RNA Kit (Macherey-Nagel) according to the manufacturer’s protocol. Complementary DNA was synthesized using the Reverse-Transkriptase Kit (Thermo Scientific) with 2 µg of RNA, 4 µL of 5× RT buffer, 0.5 µL Maxima reverse transcriptase ([…]), 1 µL of random hexamer primer (100 µM), dNTP (10 mM), and RNAse-free water to a total volume of 20 µL. After pre-incubation of RNA with water for 10 min at 70 °C, master mix was added and incubated for 10 min at 25 °C, followed by 45 min at 50 °C and a final heat inactivation step for 5 min at 85 °C.
Quantitative reverse transcription-polymerase chain reaction (qRT-PCR) was performed in 10 µL reaction volume with SYBR^TM Green PCR Master Mix (Thermo Fisher) according to the manufacturer’s instructions using a LightCycler 96 (Roche Life Science). […]
11 subsequently expression of CAMP (LL-37) was analyzed and normalized to actin. […]

**Q.** For Lugdunin, which “reduction of colonizing S. aureus (in words)” value [1] is on record?
**A.** slight, but not significant, reduction

**Q.** What about the “CAMP (LL-37) expression normalized to actin” value [2] of the same substance?
**A.** 189.36 and 213.04

**Q.** What about the “DEFB1 (HBD-1) expression normalized to actin” value [2] of the same substance?
**A.** 1.91

**Q.** What about the “DEFB4A (HBD-2) expression normalized to actin” value [2] of the same substance?
**A.** 0.69 and 0.77

**Q.** And the “DEFB103A (HBD-3) expression normalized to actin” value [2]?
**A.** 1.53 and 1.71

**Q.** And the “RNASE7 (RNase7) expression normalized to actin” value [2]?
**A.** 2.34 and 2.18
